According to BindingDB's records for patent US9790233 (Case Western Reserve University, 2017):

Target: T1, 15-hydroxyprostaglandin dehydrogenase [NAD(+)] (Homo sapiens, UniProt P15428)
T1 sequence (P15428 whole entry): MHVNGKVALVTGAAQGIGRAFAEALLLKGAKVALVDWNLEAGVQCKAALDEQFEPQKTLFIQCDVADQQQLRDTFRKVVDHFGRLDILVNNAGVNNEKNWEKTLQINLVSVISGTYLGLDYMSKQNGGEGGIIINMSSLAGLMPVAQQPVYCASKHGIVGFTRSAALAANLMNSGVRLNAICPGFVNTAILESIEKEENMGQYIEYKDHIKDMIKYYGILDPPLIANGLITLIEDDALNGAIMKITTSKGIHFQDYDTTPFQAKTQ
Test: In Vitro Assay

## CCCCC(=O)c1sc2nc(-c3nccs3)ccc2c1N [US9790233, ID SW206992]
  IC50: 1.41 nM
